Measured values from patent US20220387457A1 (Qlaris Bio, Inc., priority 2020, published 2022).

How the values were obtained:
[1] = Plasma pharmacokinetics of CKLP1 and levcromakalim after topical dosing in hound dogs; assay type: in vivo, hound dog; details: for AUC(0-t) / Cmax / Tmax / half-life: plasma
Description: To assess the pharmacokinetic parameters, hound dogs (n=3) were treated with 50 μL topical ocular administration of 10 mM CKLP1 or vehicle (PBS) (n=2) in both eyes, once daily for eight days. Blood (approximately 3 mL) was collected in heparin blood collection tubes at eight different time points (5 minutes, 15 minutes, 30 minutes, 60 minutes, 2 hours, 4 hours, 8 hours and 24 hours) following treatment on days 1, 4 and 8. Plasma was separated from the blood by centrifugation at 2000 rpm for 5 minutes.
Immediately prior to analysis, tissues were thawed and their weight was measured. PBS was added at double the tissue volume homogenized in a rotor stator homogenizer for 30 seconds. […] Detection was accomplished using positive electrospray ionization with multiple-reaction monitoring (MRM). […] Data were acquired and analyzed using Waters MassLynx v4.1 software.

[2] = Toxicokinetics after escalating intravenous doses of CKLP1 in beagles; assay type: in vivo, beagle dog; parameters: AUCTlast/Dose: unit not given here; details: for AUC(0-t) / Cmax / RAUC / AUC(0-inf) / C0 / Tlast / Tmax / Vd / clearance / half-life / λZ range: dog, in vivo; for AUCTlast/Dose / Cmax/Dose: female dog
Description: Two beagles (one male and one female) were intravenously injected with escalating doses of CKPL1 (0.05 mg/kg, 0.5 mg/kg, 1.5 mg/kg, 3 mg/kg, and 5 mg/kg) to assess the toxicity of CKLP1. The injection was done through the cephalic vein and CKLP1 was administered in a phosphate buffered saline solution ((0.096% sodium phosphate dibasic, 0.089% sodium dihydrogen orthophosphate monohydrate, 0.83% sodium chloride) pH 6.5±0.1 in sterile water for injection USP). The dosing schedule is shown below in Table 3.
The following parameters and endpoints were evaluated: mortality, clinical observations, body and organ weights, and food consumption. Bioanalytical samples for toxicokinetic parameters (for both CKLP1 and leveromakalim) were collected after each dose level (days 1, 3, 8, 10, and 14) at predose, 1, 3, 6, 8, and 24 hours postdose. Animals were released from the study after completion of the bioanalytical sample collection schedule.
Toxicokinetics (TK) were determined based on the individual exposures for each animal on each sampled study day (days 1, 3, 8, 10, and 14). […] Predose samples had no quantifiable exposure in any animal on any day, with the exception of the female dog on day 10. The predose concentration for the female dog on day 10 was excluded from the TK analysis in order to allow for estimation of the IV C0.

[3] = CKLP1, topical 10 mM CKLP1 once daily, Day 1
[4] = CKLP1, topical 10 mM CKLP1 once daily, Day 4
[5] = CKLP1, topical 10 mM CKLP1 once daily, Day 8
[6] = hound, dog, topical or ocular, 10 mM CKLP1, 50 µL in each of both eyes, CKLP1, topical 10 mM CKLP1 once daily, Day 1
[7] = hound, dog, topical or ocular, 10 mM CKLP1, 50 µL in each of both eyes, CKLP1, topical 10 mM CKLP1 once daily, Day 4
[8] = hound, dog, topical or ocular, 10 mM CKLP1, 50 µL in each of both eyes, CKLP1, topical 10 mM CKLP1 once daily, Day 8
[9] = IV CKLP1 0.05 mg/kg, study day 1
[10] = IV CKLP1 0.5 mg/kg, study day 3
[11] = IV CKLP1 1.5 mg/kg, study day 8

Work on `CC1(C)Oc2ccc(C#N)cc2[C@@H](N2CCCC2=O)[C@@H]1OP(=O)(O)O` [CKLP1] yielded a Clast [1, 3] of 2.6 ng/mL, a Tlast [1, 3] of 480 min and a Clast [1, 4] of 1.4 ng/mL. For the same molecule, the Tlast [1, 4] was 1440 min, the Clast [1, 5] was 0.3 ng/mL and the Tlast [1, 5] was 1450 min. For the same molecule, the AUC(0-t) [1, 6] was 72.9 ng·h/mL, the Cmax [1, 6] was 10.3 ng/mL and the Tmax ([1]; hound, dog, topical or ocular, 10 mM CKLP1, 50 µL in each of both eyes, CKLP1, topical 10 mM CKLP1 once daily, Day 1, read-out: Tmax (converted)) was 1 h. It also gave an AUC(0-t) [1, 7] of 103 ng·h/mL, a Cmax [1, 7] of 12.2 ng/mL and a Tmax ([1]; hound, dog, topical or ocular, 10 mM CKLP1, 50 µL in each of both eyes, CKLP1, topical 10 mM CKLP1 once daily, Day 4, read-out: Tmax (converted)) of 2 h. For the same molecule, the AUC(0-t) [1, 8] was 86.7 ng·h/mL, the Cmax [1, 8] was 8.9 ng/mL and the Tmax ([1]; hound, dog, topical or ocular, 10 mM CKLP1, 50 µL in each of both eyes, CKLP1, topical 10 mM CKLP1 once daily, Day 8, read-out: Tmax (converted)) was 1 h. For the same molecule, the half-life ([1]; hound, dog, topical or ocular, 10 mM, CKLP1, topical 10 mM CKLP1 once daily, Day 1) was 180 min, the half-life ([1]; hound, dog, topical or ocular, 10 mM, CKLP1, topical 10 mM CKLP1 once daily, Day 4) was 452 min and the half-life ([1]; hound, dog, topical or ocular, 10 mM, CKLP1, topical 10 mM CKLP1 once daily, Day 8) was 254 min. For the same molecule, the Tmax ([1]; hound, dog, topical or ocular, 10 mM, topical 10 mM CKLP1, read-out: time of maximum concentration (Tmax) of CKLP1) was ≤ 1 h, the AUC ([1]; hound, dog, topical or ocular, CKLP1 in plasma, topical 10 mM CKLP1) was 87.7 ng·h/mL and the “AUC of CKLP1 relative to levcromakalim” value ([1]; topical 10 mM CKLP1) was 22.4 fold. For the same molecule, the “Maximum concentration of CKLP1 in plasma” value ([1]; topical 10 mM CKLP1, mean of days 1, 4, 8) was 10.5 ± 1.7 ng/mL, the “conversion of CKLP1 to levcromakalim, estimate from blood concentrations” value ([1]; topical CKLP1) was 10% and the “gender differences in AUC values following each dose” value ([2]; IV CKLP1) was “less than 2 fold”. The AUC(0-t) ([2]; both sexes, beagle, CKLP1, IV 3 mg/kg, read-out: AUCTlast at MTD, sex-combined) was 107000 ng·h/mL, the Cmax ([2]; both sexes, beagle, CKLP1, IV 3 mg/kg, read-out: Cmax at MTD, sex-combined) was 16400 ng/mL and the RAUC ([2]; iv, 0.05 mg/kg) was “LOO”. The “plasma concentrations of CKLP1 relative to levcromakalim” value ([2]; early time points after IV CKLP1) was “more than 300 fold”, the AUCTlast/Dose [2, 9] was 41900 and the Cmax/Dose [2, 9] was 7.12e+06 µg/mL. It also gave an AUCTlast/Dose [2, 10] of 41900, a Cmax/Dose [2, 10] of 5.98e+06 µg/mL and an AUCTlast/Dose [2, 11] of 40800. It also gave a Cmax/Dose [2, 11] of 6.03e+06 µg/mL, an AUCTlast/Dose ([2]; IV CKLP1 3 mg/kg, study day 10) of 42800 and a Cmax/Dose ([2]; IV CKLP1 3 mg/kg, study day 10) of 6.13e+06 µg/mL. For the same molecule, the AUCTlast/Dose ([2]; IV CKLP1 5 mg/kg, study day 14) was 62300, the Cmax/Dose ([2]; IV CKLP1 5 mg/kg, study day 14) was 5.86e+06 µg/mL and the AUC(0-inf) ([2]; female, beagle, iv, 0.05 mg/kg) was 2110 ng·h/mL. The AUC(0-t) ([2]; female, beagle, iv, 0.05 mg/kg) was 2100 ng·h/mL, the C0 ([2]; female, beagle, iv, 0.05 mg/kg) was 461 ng/mL and the Cmax ([2]; female, beagle, iv, 0.05 mg/kg) was 356 ng/mL. The RAUC ([2]; female, beagle, iv, 0.05 mg/kg) was 1.00, the Tlast ([2]; female, beagle, iv, 0.05 mg/kg) was 24.0 h and the Tmax ([2]; female, beagle, iv, 0.05 mg/kg) was 1 h. The Vd ([2]; female, beagle, iv, 0.05 mg/kg) was 0.112 L/kg, the clearance ([2]; female, beagle, iv, 0.05 mg/kg) was 0.395 mL/min/kg and the half-life ([2]; female, beagle, iv, 0.05 mg/kg) was 196 min. It also gave a λZ range ([2]; female, beagle, iv, 0.05 mg/kg) of 6 to 24 h, an AUC(0-inf) ([2]; female, beagle, iv, 0.5 mg/kg) of 21200 ng·h/mL and an AUC(0-t) ([2]; female, beagle, iv, 0.5 mg/kg) of 20900 ng·h/mL. The C0 ([2]; female, beagle, iv, 0.5 mg/kg) was 3670 ng/mL, the Cmax ([2]; female, beagle, iv, 0.5 mg/kg) was 2990 ng/mL and the RAUC ([2]; female, beagle, iv, 0.5 mg/kg) was 10.0. For the same molecule, the Tlast ([2]; female, beagle, iv, 0.5 mg/kg) was 24.0 h, the Tmax ([2]; female, beagle, iv, 0.5 mg/kg) was 1 h and the Vd ([2]; female, beagle, iv, 0.5 mg/kg) was 0.139 L/kg. The clearance ([2]; female, beagle, iv, 0.5 mg/kg) was 0.392 mL/min/kg, the half-life ([2]; female, beagle, iv, 0.5 mg/kg) was 247 min and the λZ range ([2]; female, beagle, iv, 0.5 mg/kg) was 6 to 24 h. It also gave an AUC(0-inf) ([2]; female, beagle, iv, 1.5 mg/kg) of 62500 ng·h/mL, an AUC(0-t) ([2]; female, beagle, iv, 1.5 mg/kg) of 61200 ng·h/mL and a C0 ([2]; female, beagle, iv, 1.5 mg/kg) of 11000 ng/mL. It also gave a Cmax ([2]; female, beagle, iv, 1.5 mg/kg) of 9050 ng/mL, an RAUC ([2]; female, beagle, iv, 1.5 mg/kg) of 29.1 and a Tlast ([2]; female, beagle, iv, 1.5 mg/kg) of 24.0 h. The Tmax ([2]; female, beagle, iv, 1.5 mg/kg) was 1 h, the Vd ([2]; female, beagle, iv, 1.5 mg/kg) was 0.162 L/kg and the clearance ([2]; female, beagle, iv, 1.5 mg/kg) was 0.4 mL/min/kg. The half-life ([2]; female, beagle, iv, 1.5 mg/kg) was 281 min, the λZ range ([2]; female, beagle, iv, 1.5 mg/kg) was 6 to 24 h and the AUC(0-inf) ([2]; female, beagle, iv, 3 mg/kg) was 129000 ng·h/mL. For the same molecule, the AUC(0-t) ([2]; female, beagle, iv, 3 mg/kg) was 128000 ng·h/mL, the C0 ([2]; female, beagle, iv, 3 mg/kg) was 22700 ng/mL and the Cmax ([2]; female, beagle, iv, 3 mg/kg) was 18400 ng/mL. It also gave an RAUC ([2]; female, beagle, iv, 3 mg/kg) of 61.0, a Tlast ([2]; female, beagle, iv, 3 mg/kg) of 24.0 h and a Tmax ([2]; female, beagle, iv, 3 mg/kg) of 1 h.
